Experiments:
Assay in all cases: selective drug sensitivity score (sDSS, relative to normal bone marrow) (sDSS (score)); higher = more potent and effective on the cell line relative to normal bone marrow cells
Details in all cases: 72 h
[1] = system: NALL-1
[2] = system: TANOUE
[3] = system: MHH-CALL-3
[4] = system: MOLT-16
[5] = system: REH
[6] = system: P12-ICHIKAWA
[7] = system: DND-41
[8] = system: JURKAT
[9] = system: MOLT-4
[10] = system: KASUMI-10
[11] = system: COG-LL-319h
[12] = system: MOLT-14
[13] = system: PF-382
[14] = system: RCH-ACV
[15] = system: LC4-1
[16] = system: 697
[17] = system: COG-LL-332h
[18] = system: CCRF-HSB2
[19] = system: COG-LL-402h
[20] = system: HPB-ALL
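Note: ALL cell lines in 384-well plates, five doses spanning 10,000-fold, each plate scaled between vehicle and 100 µmol/L benzalkonium chloride controls, sDSS an adapted area-under-curve metric.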

Structure (SMILES)	selective drug sensitivity score [1]	selective drug sensitivity score [2]	selective drug sensitivity score [3]	selective drug sensitivity score [4]	selective drug sensitivity score [5]	selective drug sensitivity score [6]	selective drug sensitivity score [7]	selective drug sensitivity score [8]	selective drug sensitivity score [9]	selective drug sensitivity score [10]	selective drug sensitivity score [11]	selective drug sensitivity score [12]	selective drug sensitivity score [13]	selective drug sensitivity score [14]	selective drug sensitivity score [15]	selective drug sensitivity score [16]	selective drug sensitivity score [17]	selective drug sensitivity score [18]	selective drug sensitivity score [19]	selective drug sensitivity score [20]
Cc1c(-c2ccc(N3CCc4cccc(C(=O)Nc5nc6ccccc6s5)c4C3)nc2C(=O)O)cnn1CC12CC3CC(CC(C3)C1)C2 (top concentration 1000 nM)	0.14	-2.26	9.54	0.54	-2.26	27.7	19.7	7.34	23.6	3.04	19.4	6.34	12.5	-1.76	-2.26	-1.76	9.14	10.2	16.5	25.5
O=C(NOC[C@H](O)CO)c1ccc(F)c(F)c1Nc1ccc(I)cc1F (top concentration 1000 nM)	-4.16	-2.46	14.9	-1.36	-4.16	0.84	8.64	-3.96	-1.96	-2.86	2.44	8.84	-2.36	-1.96	6.24	0.14	-2.26	0.44	1.84	0.74
CO[C@@H](C)Cn1c(=O)n(C)c2cnc3ccc(-c4cncc(C(C)(C)O)c4)cc3c21 (top concentration 2500 nM)	0.48	-5.12	-1.42	11.9	6.78	1.38	3.18	2.98	3.38	-1.02	5.48	2.08	5.88	17.6	2.68	9.78	4.18	5.58	5.48	2.18
Cc1cccc(CC(=O)N2CCc3c2ccc(-c2cn(C)c4ncnc(N)c24)c3F)n1 (top concentration 2500 nM)	-0.68	2.52	-0.68	5.62	9.62	2.82	-0.68	8.22	3.22	-0.68	0.52	1.22	3.72	7.02	4.72	3.42	0.32	2.82	-0.68	-0.68
CNC(=O)c1ccccc1Nc1nc(Nc2ccc3c(c2OC)CCC[C@H](N2CCN(CCO)CC2)C3)ncc1Cl (top concentration 5000 nM)	-3.34	-5.34	-1.94	2.06	-2.24	-2.84	0.06	-2.54	-0.74	5.66	8.86	1.56	-2.54	0.46	2.96	2.86	-1.54	-1.44	-0.84	1.66
COc1cc2ncnc(Oc3cccc(NC(=O)Nc4cc(C(C)(C)C(F)(F)F)on4)c3)c2cc1OC (top concentration 10000 nM)	0.3	0	0	2.5	5	5.9	0	0	0	10.8	12.3	0.8	1.2	13.9	1.1	10.4	18.4	23.2	0.3	0
C[C@@H](Oc1cc(-n2cnc3ccc(CN4CCN(C)CC4)cc32)sc1C(N)=O)c1ccccc1C(F)(F)F (top concentration 10000 nM)	5.82	-11.2	8.92	20.2	21.8	21.9	13.2	22.8	22.8	11	14.7	24.8	26.7	20.9	22.6	20.5	20.5	24.2	16.2	11.6
Nc1nccc(-c2c(-c3ccc(F)cc3)ncn2C2CCCCC2)n1 (top concentration 10000 nM)	0.1	0	0.1	2.6	0.8	0.1	3.3	0.1	0.4	2.5	2.5	0	0.8	13.5	3.1	4.8	3.1	3.4	0.7	0.4
O=C(O)c1ccc(-c2c[nH]c3ncc(-c4ccccc4)cc23)cc1C1CCCC1 (top concentration 10000 nM)	7.66	-1.44	3.76	3.66	-1.44	3.46	-1.24	0.16	-0.94	5.46	1.36	2.46	-0.34	5.76	-0.94	0.96	2.86	3.16	-1.44	0.06

Source: the supplement of paper PMC8967900
